Measurements published in patent publication US7025991B2, “Drug targeting system, method of its preparation and its use” (NanoDel Technologies GmbH, priority 1997, dated 2006).

Tested on: mice
Assay: hot plate test (analgesic effect) after intravenous or oral application
Type: in vivo
Details: intravenous injection, dalargin dose 10.0 mg/kg
From the text: Dalargin was given either in solution, or after sorptive binding to nanoparticles. The groups (n=10) are as follows:
Dalargin was given either in solution, or after sorptive binding to nanoparticles. The data were collected at different time points following oral application.
Dalargin was given either in solution, or after sorptive binding to nanoparticles that were stabilized with Dextran 12.000.
Dalargin was adsorbed to poly(butyl cyanoacrylate) nanoparticles which were stabilized with polysorbate 85.
After this time, the preparation was injected intravenously into mice at a dalargin dose of 10.0 mg/kg. Various preparations include pure dalargin solution and empty nanoparticles served as controls.
Activity threshold was measured with the hot plate test.
2. […] The analgesia was determined 30, 45, 60, 90, 120 and 150 min after p.o. application.
4. To test the question whether other stabilizers may be used to achieve the desired effect, nanoparticles were investigated in which the stabilizer was the low molecular size dextran 12,000. The dextran 12,000 stabilized nanoparticles of Example 2 were loaded with dalargin, and the analgesic effect was determined in the hot plate test after intravenous injection into mice.

Substance: dalargin
- analgesic effect, hot plate test: did not exhibit any analgesic effect
- analgesic effect, hot plate test (listed as dalargin alone): None of the control groups (empty nanoparticles and dalargin alone) exhibited any analgesic effects
